Laboratory results reported in patent US5391540A, “Substituted pyridine compounds” (Rohm and Haas Company, priority 1993, dated 1995).

Assays:
Assay in all cases: Pre-emergent herbicidal activity (Table A)
Type in all cases: in vivo
[1] = system: Barnyardgrass; conditions: Echinochloa crus-galli, pre-emergence, Bygr, 11.2 kg/ha, 10-14 days, read-out: herbicidal rating (% inhibition)
Procedure, shortened: (§1)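 Seeds or perennial propagules set on compacted topsoil, then covered with soil mixed with a known amount of test compound applied in acetone or water carrier. Ratings assigned on a scale based on percent inhibition of each species.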

[2] = system: Canada thistle; conditions: Cirsium arvense, pre-emergence, Cath, 11.2 kg/ha, 10-14 days, read-out: herbicidal rating (% inhibition)
Procedure, shortened: as §1

[3] = system: Cocklebur; conditions: Xanthium strumarium, pre-emergence, Cobu, 11.2 kg/ha, 10-14 days, read-out: herbicidal rating (% inhibition)
Procedure, shortened: as §1

[4] = system: Common Lambsquarters; conditions: Chenopodium album, pre-emergence, Colq, 11.2 kg/ha, 10-14 days, read-out: herbicidal rating (% inhibition)
Procedure, shortened: as §1

[5] = system: Downy Brome; conditions: Bromus tectorum, pre-emergence, Dobr, 11.2 kg/ha, 10-14 days, read-out: herbicidal rating (% inhibition)
Procedure, shortened: as §1

[6] = system: Morningglory; conditions: Ipomoea, pre-emergence, Mogl, 11.2 kg/ha, 10-14 days, read-out: herbicidal rating (% inhibition)
Procedure, shortened: as §1

[7] = system: Pennsylvania Smartweed; conditions: pre-emergence, Pesw, 11.2 kg/ha, 10-14 days, read-out: herbicidal rating (% inhibition)
Procedure, shortened: as §1

[8] = system: Quackgrass; conditions: pre-emergence, Rhqg, 11.2 kg/ha, 10-14 days, read-out: herbicidal rating (% inhibition)
Procedure, shortened: as §1

[9] = system: Rhizome Johnsongrass; conditions: Sorghum halepense, pre-emergence, Rhjg, 11.2 kg/ha, 10-14 days, read-out: herbicidal rating (% inhibition)
Procedure, shortened: as §1

[10] = system: Velvetleaf; conditions: Abutilon theophrasti, pre-emergence, Vele, 11.2 kg/ha, 10-14 days, read-out: herbicidal rating (% inhibition)
Procedure, shortened: as §1

[11] = system: Yellow Nutsedge; conditions: Cyperus, pre-emergence, Yens, 11.2 kg/ha, 10-14 days, read-out: herbicidal rating (% inhibition)
Procedure, shortened: as §1

| Structure (SMILES) | inhibition at 11200 g/ha [1] | inhibition at 11200 g/ha [2] | inhibition at 11200 g/ha [3] | inhibition at 11200 g/ha [4] | inhibition at 11200 g/ha [5] | inhibition at 11200 g/ha [6] | inhibition at 11200 g/ha [7] | inhibition at 11200 g/ha [8] | inhibition at 11200 g/ha [9] | inhibition at 11200 g/ha [10] | inhibition at 11200 g/ha [11] |
| --- | --- | --- | --- | --- | --- | --- | --- | --- | --- | --- | --- |
| COC(=O)c1c(C(F)(F)F)nc(OC)c(-n2cccc2)c1CC(C)C [Compound 14, 3-pyridinecarboxylic acid, 6-methoxy-4-(2-methylpropyl)-5-(1H-pyrro1-1-yl)-2-(trifluoromethyl)-, methyl ester] | 75 to 100% | 75 to 100% | 0 to 24% | 75 to 100% | 75 to 100% | 75 to 100% | 75 to 100% | 50 to 74% | 75 to 100% | 75 to 100% | 0 to 24% |
| COC(=O)c1c(OC)nc(C(F)(F)F)c(CO)c1CC(C)C [Compound 40, 3-pyridinecarboxylic acid, 5-(hydroxymethyl)-2-methoxy-4-(2-methylpropyl)-6-(trifluoromethyl)-, methyl ester] | 75 to 100% | 0 to 24% | 0 to 24% | 75 to 100% | 75 to 100% | 0 to 24% | 75 to 100% | 75 to 100% | 0 to 24% | 25 to 49% | 0 to 24% |
| COC(=O)c1c(OC)nc(C(F)(F)F)c(C(=O)N2CCCCC2)c1CC(C)C [Compound 67, 3-pyridinecarboxylic acid, 2-methoxy-4-(2-methylpropyl)-5-(1-piperidinylcarbonyl)-6-(trifluoromethyl)-, methyl ester] | 75 to 100% | 75 to 100% | 0 to 24% | 75 to 100% | 75 to 100% | 75 to 100% | 75 to 100% | 75 to 100% | 0 to 24% | 50 to 74% | 0 to 24% |
| CCOC(=O)c1c(C(F)(F)F)nc(OC)c(C(=O)OC)c1CC(C)C [Compound 44, 3,5-pyridinedicarboxylic acid, 2-methoxy-4-(2-methylpropyl)-6-(trifluoromethyl)-, 5-ethyl 3-methyl ester] | 75 to 100% | 75 to 100% | 25 to 49% | 75 to 100% | 75 to 100% | 75 to 100% | 75 to 100% | 75 to 100% | 75 to 100% | 75 to 100% | 75 to 100% |
| COC(=O)c1c(OC)nc(C(F)(F)F)c(C(=O)OC)c1C(C)C [Compound 63, 3,5-pyridinedicarboxylic acid, 2-methoxy-4-(1-methylethyl)-6-(trifluoromethyl)-, dimethyl ester] | 75 to 100% | 50 to 74% | 0 to 24% | 75 to 100% | 75 to 100% | 75 to 100% | 75 to 100% | 75 to 100% | 75 to 100% | 75 to 100% | 75 to 100% |
| COC(=O)c1c(OC)nc(C(F)(F)F)c(C(=O)NCCO)c1CC(C)C [Compound 38, 3-pyridinecarboxylic acid, 5-[[(2-hydroxyethyl)amino]carbonyl]-2-methoxy-4-(2-methylpropyl)-6-(trifluoromethyl)-, methyl ester] | 0 to 24% | 0 to 24% | 0 to 24% | 0 to 24% | 0 to 24% | 0 to 24% | 0 to 24% | 0 to 24% | 0 to 24% | 0 to 24% | 0 to 24% |
| CCOC(=O)c1c(OCC)nc(C(F)(F)F)c(C(=O)OCC)c1CC(C)C [Compound 39, 3,5-pyridinedicarboxylic acid, 2-ethoxy-4-(2-methylpropyl)-6-(trifluoromethyl)-, diethyl ester] | 75 to 100% | 0 to 24% | 0 to 24% | 75 to 100% | 75 to 100% | 25 to 49% | 75 to 100% | 0 to 24% | 0 to 24% | 50 to 74% | 0 to 24% |
| COC(=O)c1c(OC)nc(C(F)(F)F)c(C(=O)N2CCCC2)c1CC(C)C [Compound 66, 3-pyridinecarboxylic acid, 2-methoxy-4-(2-methylpropyl)-5-(1-pyrrolidinylcarbonyl)-6-(trifluoromethyl)-, methyl ester] | 75 to 100% | 75 to 100% | 0 to 24% | 75 to 100% | 75 to 100% | 50 to 74% | 25 to 49% | 75 to 100% | 0 to 24% | 25 to 49% | 0 to 24% |
| COC(=O)c1c(OC)nc(C(F)(F)F)c(C2=NCC(C)S2)c1CC(C)C (stereo not drawn) [Compound 64, 3-pyridinecarboxylic acid, 5-(4,5-dihydro-5-methy1-2-thiazolyl)-2-methoxy-4-(2-methylpropyl)-6-(trifluoromethyl)-, methyl ester] | 75 to 100% | 75 to 100% | 75 to 100% | 75 to 100% | 75 to 100% | 75 to 100% | 75 to 100% | 50 to 74% | 0 to 24% | 75 to 100% | 0 to 24% |
| COC(=O)c1c(OC)nc(C(F)(F)F)c(C(=O)N2CC2C)c1CC(C)C (stereo not drawn) [Compound 72] | 75 to 100% | 0 to 24% | 0 to 24% | 75 to 100% | 75 to 100% | 25 to 49% | 25 to 49% | 0 to 24% | 0 to 24% | 25 to 49% | 0 to 24% |
| CCOC(=O)C1=C(C(F)(F)F)NC(=O)C(C(N)=O)C1CC(C)C (stereo not drawn) [Compound 35, 3-pyridinecarboxylic acid, 5-(aminocarbonyl)-1,4,5,6-tetrahydro-4-(2-methylpropyl)-6-oxo-2-(trifluoromethyl)-, ethyl ester] | 0 to 24% | 0 to 24% | 0 to 24% | 0 to 24% | 0 to 24% | 0 to 24% | 0 to 24% | 0 to 24% | 0 to 24% | 0 to 24% | 0 to 24% |
| CCSC(=O)c1c(C(F)(F)F)nc(OC)c(C(=O)OC)c1CC(C)C [Compound 53, 3-pyridinecarboxylic acid, 5-[(ethylthio)carbonyl]-2-methoxy-4-(2-methylpropyl)-6-(trifluoromethyl)-, methyl ester] | 75 to 100% | 0 to 24% | 75 to 100% | 75 to 100% | 75 to 100% | 75 to 100% | 75 to 100% | 75 to 100% | 0 to 24% | 75 to 100% | 0 to 24% |
